Legend:
[1] = test system: cyclooxygenase of human granulocytes; assay: Inhibition of PGE2 secretion (cyclooxygenase) by human granulocytes stimulated by calcium ionophore A23187; format: cell-based; settings: concentration of 10^-5 M, A23187 5×10^-6 M, read-out: inhibition of the production of PGE2
From the text: The aim of this study is to measure the inhibiting activity of the compounds of the invention on the secretion of prostaglandin E2 (PGE2), one of the principal prostanoids produced by the cyclooxygenase of human granulocytes stimulated by the calcium ionophore A23187.
Human venous blood from blood donors who have not taken medicaments for 2 weeks is drawn into polypropylene tubes containing 1 volume of anti-coagulant (2.73% citric acid, 4.48% sodium citrate, 2% glucose) per 10 volumes of blood.
In the hour following taking the samples, 6% dextran is added to the blood (0.3 cm^3 /cm^3 of blood). After incubation for 30 min. at 37° C., the plasma rich in white corpuscles is centrifuged at a speed of 100 g for 5 min. at 4° C. […]
After centrifugation at a speed of 420 g for 30 min. at 4° C., the sediment rich in granulocytes is resuspended in 5 cm^3 of phosphate buffer and centrifuged at a speed of 100 g for 5 min. at 4° C. Finally, the granulocytes are counted and the density is adjusted to 3×10^6 cells/cm^3 of phosphate buffer.
The cells (3×10^6 cells/cm^3) are preincubated at 37° C. for 15 min. in the absence or presence of the products to be tested at the desired concentration. […] The base level is measured using cells without either the products to be tested or A23187. […]
The quantity of PGE2 produced is measured by a radioimmunological assay (RIA). […]

[2] = test system: lipoxygenase, human polynuclear cells; assay: Inhibition of LTB4 production (lipoxygenase) by human polynuclear cells activated by calcium ionophore A 23187; format: cell-based; settings: concentration of 10^-5 M
Method: The production of the principal prostanoid, resulting from lipoxygenase, produced by human polynuclear cells: leucotriene B4 (LTB4) is measured by a radioimmunological assay.

CC(C)(Sc1cc(C(C)(C)C)c(O)c(C(C)(C)C)c1)Sc1cc(C(C)(C)C)c(O)c(C(C)(C)C)c1 [probucol]
inhibition at 10 µM [1]: ~40%
inhibition at 10 µM [2]: ~40%

From patent publication US5382593A, “New 3-(hydroxybenzylidenyl)-indolin-2-ones” (Adir et Compagnie, priority 1992, dated 1995)
